{"source": "patent US11510887B2", "about": "“Sobetirome in the treatment of myelination diseases” (Oregon Health & Science University, priority 2013, dated 2022)", "key": {"[1]": {"test_system": "corpus callosum of mice following injection of lysolecithin", "experiment": "Lysolecithin toxin model of focal demyelination", "type": "in vivo, C57BL/6 mice", "settings": "8 days after lysolecithin injection, daily i.p. from 7 days before to 8 days after, sobetirome 1.0 mg/kg/day, T3 0.4 mg/kg/day", "procedure": "FIG. 1: Sobetirome reduced demyelination in the corpus callosum of mice following injection of lysolecithin. Top, BlackGold® stain is specific for myelin fibers and cresyl violet is used as a counterstain. Mice received stereotactic injections of 2 μL of PBS or 2% lysolecithin in the corpus callosum. A white arrow indicates the path of the injection needle and a black box indicates the lesion site. An enlarged image of the boxed lesion site is shown to the right. Bottom, brain sections of 30 μm were stained with FluoroMyelin™, anti-PDGFR-α and DAPI. Hypothyroidism was induced with drinking water treatment, and both hypothyroid and control mice received vehicle injections. T3 (0.4 mg/kg) and sobetirome (1 mg/kg) were administered by daily i.p. injections starting 7 days before stereotactic injection of lysolecithin. Mice were euthanized 8 days after stereotactic injection of 2% lysolecithin, and brains were harvested and processed for histological analysis.\nLysolecithin was injected into the corpus callosum using stereotactic equipment at the x, y, z coordinates of +1.000, +1.050, and +2.000 mm from the Bregma point using a beveled needle with the bevel facing caudally. To minimize trauma, 2 μL of 2% lysolecithin or 2 μL of PBS was injected over four minutes using a micropump injector and the beveled needle was held in place for five minutes before withdrawal. […]"}, "C57BL/6 mice with EAE": {"test_system": "C57BL/6 mice with EAE", "experiment": "EAE induced with MOG 35-55 peptide", "type": "in vivo, C57BL/6 female mice", "procedure": "FIG. 2: Sobetirome reduces demyelination in mice with EAE. […] EAE was induced in female mice with MOG 35-55 peptide. On day 17 post immunization, mice were randomized based on their EAE scores and daily i.p. injections of sobetirome (n=8) or vehicle (n=8) were started. Mice were euthanized after 11 days of treatment and spinal cords were prepared for histological evaluation. The mean percentage of ventrolateral demyelination for vehicle treated mice was 17.25 (SD+/−7.09) and 9.11 (SD+/−4.96) for sobetirome (p<0.01).\nThis study was performed to assess the effects of sobetirome on EAE in C57BL/6 female mice immunized with MOG 35-55 peptide. Seventeen days after immunization, at peak of clinical disease, mice were randomized to receive daily injections of sobetirome (1 mg/kg/day) or vehicle. After 11 days of treatment, mice were euthanized and processed for histologic examination. […] This is because the degree of inflammation within the spinal cords was similar between the two groups (Table 1) and much of the short term paralysis that occurs in EAE is secondary to effects of inflammation on neural function. […] Much of the effect appears related to protection of axons and myelin from damage (FIG. 3). Thus, sobetirome has a neuroprotective effect that decreases axonal damage and demyelination."}}, "data": [{"smiles": "Cc1cc(OCC(=O)O)cc(C)c1Cc1ccc(O)c(C(C)C)c1", "note": "[Sobetirome]", "values": [{"measurement": "areas of demyelination compared with vehicle", "setting": "[1]", "value": "much smaller areas of demyelination"}, {"measurement": "% CD4 Staining (T cell marker)", "setting": "C57BL/6 mice with EAE; immunofluorescent staining of lumbosacral spinal cord sections, vehicle 1.01", "value": 1.24, "unit": "%"}, {"measurement": "% CD11b Staining (macrophage marker)", "setting": "C57BL/6 mice with EAE; immunofluorescent staining of lumbosacral spinal cord sections, vehicle 3.89", "value": 5.76, "unit": "%"}, {"measurement": "EAE clinical scores versus vehicle", "setting": "C57BL/6 mice with EAE; sobetirome 1 mg/kg/day, 11 days of treatment from day 17 after immunization", "value": "did not differ significantly"}, {"measurement": "demyelination in lateral columns of the lumbosacral cord versus vehicle", "setting": "C57BL/6 mice with EAE; sobetirome 1 mg/kg/day, 11 days of treatment, p<0.01", "value": "significantly less demyelination"}, {"measurement": "mean percentage of ventrolateral demyelination (area of damage in ventrolateral white matter)", "setting": "C57BL/6 mice with EAE; spinal cord, after 11 days of daily i.p. treatment started day 17 post immunization, n=8, vehicle 17.25 (SD+/−7.09), p<0.01", "value": "9.11 (SD+/−4.96) %"}]}, {"smiles": "N[C@@H](Cc1cc(I)c(Oc2ccc(O)c(I)c2)c(I)c1)C(=O)O", "note": "[T3, triiodothyronine]", "values": [{"measurement": "areas of demyelination compared with vehicle", "setting": "[1]", "value": "much smaller areas of demyelination"}]}]}
